Results reported in the kinase profiling compilation of Christmann-Franck et al. (2016).

Legend:
Assay in all cases: KINOMEscan competition binding
[1] = target: SIK2 (human) (UniProt Q9H0K1)
[2] = target: CAMK1D (human) (UniProt Q8IU85)
[3] = target: ULK3 (human) (UniProt Q6PHR2)
[4] = target: EIF2AK2 (human) (UniProt P19525)
[5] = target: NTRK3 (human) (UniProt Q16288)
[6] = target: MAP4K1 (human) (UniProt Q92918)
[7] = target: MAP3K10 (human) (UniProt Q02779)
[8] = target: CDK7 (human) (UniProt P50613)
[9] = target: CDKL2 (human) (UniProt Q92772)
[10] = target: STK33 (human) (UniProt Q9BYT3)
[11] = target: ABL1 (human), P00519 [M351T]
[12] = target: PRKAA2 (human) (UniProt P54646)
[13] = target: CLK4 (human) (UniProt Q9HAZ1)
[14] = target: FGFR2 (human) (UniProt P21802)
[15] = target: HIPK2 (human) (UniProt Q9H2X6)
[16] = target: CDKL5 (human) (UniProt O76039)
[17] = target: PIK3CA (human), P42336 [H1047Y]
[18] = target: FES (human) (UniProt P07332)
[19] = target: FLT3 (human), P36888 [K663Q]
[20] = target: AURKC (human) (UniProt Q9UQB9)
[21] = target: PLK4 (human) (UniProt O00444)
[22] = target: AXL (human) (UniProt P30530)
[23] = target: LIMK1 (human) (UniProt P53667)
[24] = target: PIM3 (human) (UniProt Q86V86)
[25] = target: PRKD3 (human) (UniProt O94806)
[26] = target: CAMKK1 (human) (UniProt Q8N5S9)
[27] = target: BLK (human) (UniProt P51451)
[28] = target: RIPK2 (human) (UniProt O43353)
[29] = target: RPS6KA5 KD1 (human) (UniProt O75582)
[30] = target: RPS6KA6 KD2 (human) (UniProt Q9UK32)
[31] = target: MLTK (human) (UniProt Q9NYL2)
[32] = target: MAP3K2 (human) (UniProt Q9Y2U5)
[33] = target: EPHB2 (human) (UniProt P29323)
[34] = target: ABL1 (human) (UniProt P00519)
[35] = target: EPHB4 (human) (UniProt P54760)
[36] = target: TNK2 (human) (UniProt Q07912)
[37] = target: BTK (human) (UniProt Q06187)
[38] = target: CDK5 (human) (UniProt Q00535)
[39] = target: CHEK2 (human) (UniProt O96017)
[40] = target: FLT3 (human), P36888 [ITD]
[41] = target: RIPK4 (human) (UniProt P57078)

Chain of STK33 (human) (Q9BYT3 whole entry, looked up): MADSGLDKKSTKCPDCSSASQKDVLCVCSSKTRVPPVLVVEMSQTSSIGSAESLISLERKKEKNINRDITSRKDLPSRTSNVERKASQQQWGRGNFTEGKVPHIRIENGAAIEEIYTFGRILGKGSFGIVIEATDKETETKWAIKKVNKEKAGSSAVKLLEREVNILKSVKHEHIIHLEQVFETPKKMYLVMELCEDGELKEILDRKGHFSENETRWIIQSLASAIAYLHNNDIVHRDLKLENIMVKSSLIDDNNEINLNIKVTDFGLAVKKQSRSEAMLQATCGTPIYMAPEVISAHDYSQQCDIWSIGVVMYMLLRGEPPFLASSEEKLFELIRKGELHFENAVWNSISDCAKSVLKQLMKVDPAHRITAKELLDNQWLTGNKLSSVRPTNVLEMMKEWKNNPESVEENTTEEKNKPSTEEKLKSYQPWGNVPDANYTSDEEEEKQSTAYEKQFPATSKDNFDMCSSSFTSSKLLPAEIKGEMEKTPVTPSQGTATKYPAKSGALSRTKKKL
Chain of CLK4 (human) (Q9HAZ1 whole entry, looked up): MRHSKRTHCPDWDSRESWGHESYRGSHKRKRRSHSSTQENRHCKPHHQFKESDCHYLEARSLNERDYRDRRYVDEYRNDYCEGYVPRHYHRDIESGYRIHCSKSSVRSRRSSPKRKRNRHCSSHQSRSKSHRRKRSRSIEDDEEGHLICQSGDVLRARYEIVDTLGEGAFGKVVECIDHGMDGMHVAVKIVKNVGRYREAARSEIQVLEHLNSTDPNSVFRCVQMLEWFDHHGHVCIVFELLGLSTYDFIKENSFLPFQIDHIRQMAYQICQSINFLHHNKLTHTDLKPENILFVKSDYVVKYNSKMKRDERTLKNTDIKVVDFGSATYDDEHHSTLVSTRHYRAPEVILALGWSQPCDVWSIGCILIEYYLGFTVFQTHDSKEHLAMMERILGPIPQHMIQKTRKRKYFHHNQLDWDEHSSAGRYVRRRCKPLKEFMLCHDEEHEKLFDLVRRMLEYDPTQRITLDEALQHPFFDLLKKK
Chain of CAMKK1 (human) (Q8N5S9 whole entry, looked up): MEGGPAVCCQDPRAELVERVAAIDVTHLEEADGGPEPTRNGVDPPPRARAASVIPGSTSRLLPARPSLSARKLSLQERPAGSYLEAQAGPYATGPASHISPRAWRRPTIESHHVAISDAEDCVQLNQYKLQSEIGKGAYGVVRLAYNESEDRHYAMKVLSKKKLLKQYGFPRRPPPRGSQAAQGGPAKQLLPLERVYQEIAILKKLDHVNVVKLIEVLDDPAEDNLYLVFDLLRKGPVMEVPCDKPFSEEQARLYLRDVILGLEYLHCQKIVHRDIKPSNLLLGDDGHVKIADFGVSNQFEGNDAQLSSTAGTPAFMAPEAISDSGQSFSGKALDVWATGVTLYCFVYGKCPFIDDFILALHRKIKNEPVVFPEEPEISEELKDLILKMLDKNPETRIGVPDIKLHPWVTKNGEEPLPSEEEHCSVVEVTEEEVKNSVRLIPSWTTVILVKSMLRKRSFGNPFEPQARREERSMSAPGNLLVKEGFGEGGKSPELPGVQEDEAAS
Chain of CHEK2 (human) (O96017 whole entry, looked up): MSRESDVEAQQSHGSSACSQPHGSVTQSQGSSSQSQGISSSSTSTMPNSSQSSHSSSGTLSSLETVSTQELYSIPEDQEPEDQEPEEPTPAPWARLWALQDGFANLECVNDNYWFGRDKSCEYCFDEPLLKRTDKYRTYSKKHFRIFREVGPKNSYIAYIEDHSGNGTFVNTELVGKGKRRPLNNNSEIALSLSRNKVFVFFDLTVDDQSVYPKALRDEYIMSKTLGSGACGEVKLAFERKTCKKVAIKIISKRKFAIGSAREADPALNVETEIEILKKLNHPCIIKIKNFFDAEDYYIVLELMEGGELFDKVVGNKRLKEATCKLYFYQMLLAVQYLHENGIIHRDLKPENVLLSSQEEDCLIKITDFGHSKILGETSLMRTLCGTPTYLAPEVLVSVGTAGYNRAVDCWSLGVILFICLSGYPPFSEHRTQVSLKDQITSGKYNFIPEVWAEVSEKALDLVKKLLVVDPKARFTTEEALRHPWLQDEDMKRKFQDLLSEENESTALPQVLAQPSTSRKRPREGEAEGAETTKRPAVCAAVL
Chain of RIPK2 (human) (O43353 whole entry, looked up): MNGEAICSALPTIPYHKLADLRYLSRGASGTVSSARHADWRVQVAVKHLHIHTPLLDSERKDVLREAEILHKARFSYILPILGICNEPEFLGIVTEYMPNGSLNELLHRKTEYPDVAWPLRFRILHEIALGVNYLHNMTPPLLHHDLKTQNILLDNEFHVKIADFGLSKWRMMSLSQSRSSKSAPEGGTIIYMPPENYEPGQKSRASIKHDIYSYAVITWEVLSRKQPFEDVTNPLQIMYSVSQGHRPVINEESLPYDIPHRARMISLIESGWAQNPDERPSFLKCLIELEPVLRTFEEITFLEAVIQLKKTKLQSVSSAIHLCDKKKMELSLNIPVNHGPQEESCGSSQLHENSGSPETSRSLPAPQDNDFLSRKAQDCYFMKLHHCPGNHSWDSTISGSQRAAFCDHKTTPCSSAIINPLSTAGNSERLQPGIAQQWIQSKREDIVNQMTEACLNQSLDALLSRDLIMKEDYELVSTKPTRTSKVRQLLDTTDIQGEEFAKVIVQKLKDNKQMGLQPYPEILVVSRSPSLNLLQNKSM
Chain of AURKC (human) (Q9UQB9 whole entry, looked up): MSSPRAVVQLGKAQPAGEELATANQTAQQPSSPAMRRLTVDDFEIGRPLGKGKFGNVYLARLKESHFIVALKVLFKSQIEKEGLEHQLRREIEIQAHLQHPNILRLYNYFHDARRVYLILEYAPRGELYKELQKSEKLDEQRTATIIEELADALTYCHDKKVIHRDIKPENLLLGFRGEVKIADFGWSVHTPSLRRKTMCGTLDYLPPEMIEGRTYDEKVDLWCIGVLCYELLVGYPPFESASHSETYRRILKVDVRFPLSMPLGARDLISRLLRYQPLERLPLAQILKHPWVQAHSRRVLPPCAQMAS
Chain of EPHB4 (human) (P54760 whole entry, looked up): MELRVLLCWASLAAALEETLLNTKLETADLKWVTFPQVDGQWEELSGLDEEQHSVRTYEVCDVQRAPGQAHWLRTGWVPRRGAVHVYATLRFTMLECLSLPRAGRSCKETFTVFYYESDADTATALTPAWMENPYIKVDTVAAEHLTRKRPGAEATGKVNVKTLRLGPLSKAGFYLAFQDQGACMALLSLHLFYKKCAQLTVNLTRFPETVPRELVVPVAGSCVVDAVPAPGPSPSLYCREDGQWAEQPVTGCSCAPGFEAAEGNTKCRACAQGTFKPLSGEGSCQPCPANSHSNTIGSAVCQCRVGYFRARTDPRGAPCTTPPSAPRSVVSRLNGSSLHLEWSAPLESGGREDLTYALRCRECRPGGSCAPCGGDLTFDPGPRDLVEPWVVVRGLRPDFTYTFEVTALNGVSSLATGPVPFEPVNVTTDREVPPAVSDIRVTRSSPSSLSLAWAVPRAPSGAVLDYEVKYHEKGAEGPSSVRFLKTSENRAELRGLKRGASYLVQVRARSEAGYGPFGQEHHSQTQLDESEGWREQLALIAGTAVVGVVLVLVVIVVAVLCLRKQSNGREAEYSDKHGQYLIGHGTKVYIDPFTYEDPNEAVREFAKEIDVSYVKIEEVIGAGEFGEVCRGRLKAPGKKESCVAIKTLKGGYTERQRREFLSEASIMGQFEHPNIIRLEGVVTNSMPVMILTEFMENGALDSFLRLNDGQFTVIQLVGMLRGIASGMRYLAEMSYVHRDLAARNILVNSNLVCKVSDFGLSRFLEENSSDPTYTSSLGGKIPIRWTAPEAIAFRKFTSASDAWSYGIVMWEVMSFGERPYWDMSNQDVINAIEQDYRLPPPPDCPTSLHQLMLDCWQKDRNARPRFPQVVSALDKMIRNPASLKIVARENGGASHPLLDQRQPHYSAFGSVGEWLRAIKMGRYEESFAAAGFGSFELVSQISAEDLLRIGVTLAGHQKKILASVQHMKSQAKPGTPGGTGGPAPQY
Chain of RPS6KA6 KD2 (human) (Q9UK32 whole entry, looked up): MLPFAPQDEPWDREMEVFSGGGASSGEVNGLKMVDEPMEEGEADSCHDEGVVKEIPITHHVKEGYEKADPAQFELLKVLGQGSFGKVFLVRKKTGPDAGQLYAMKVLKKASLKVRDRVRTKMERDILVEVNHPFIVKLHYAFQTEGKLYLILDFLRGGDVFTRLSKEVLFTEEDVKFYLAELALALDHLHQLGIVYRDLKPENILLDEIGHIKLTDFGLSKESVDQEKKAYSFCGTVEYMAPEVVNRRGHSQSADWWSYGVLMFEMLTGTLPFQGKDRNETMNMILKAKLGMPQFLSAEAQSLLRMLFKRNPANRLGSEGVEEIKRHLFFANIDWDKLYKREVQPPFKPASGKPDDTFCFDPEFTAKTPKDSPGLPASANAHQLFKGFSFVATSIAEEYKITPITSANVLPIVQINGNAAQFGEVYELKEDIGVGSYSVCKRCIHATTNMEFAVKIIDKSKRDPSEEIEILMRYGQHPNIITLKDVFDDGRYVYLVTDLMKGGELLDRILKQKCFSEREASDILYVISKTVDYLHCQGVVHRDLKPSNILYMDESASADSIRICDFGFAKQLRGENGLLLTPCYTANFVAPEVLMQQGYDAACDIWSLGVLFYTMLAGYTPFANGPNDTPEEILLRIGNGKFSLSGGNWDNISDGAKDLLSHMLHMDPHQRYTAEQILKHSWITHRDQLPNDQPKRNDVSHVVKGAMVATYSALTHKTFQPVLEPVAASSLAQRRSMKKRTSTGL
Chain of CDK7 (human) (P50613 whole entry, looked up): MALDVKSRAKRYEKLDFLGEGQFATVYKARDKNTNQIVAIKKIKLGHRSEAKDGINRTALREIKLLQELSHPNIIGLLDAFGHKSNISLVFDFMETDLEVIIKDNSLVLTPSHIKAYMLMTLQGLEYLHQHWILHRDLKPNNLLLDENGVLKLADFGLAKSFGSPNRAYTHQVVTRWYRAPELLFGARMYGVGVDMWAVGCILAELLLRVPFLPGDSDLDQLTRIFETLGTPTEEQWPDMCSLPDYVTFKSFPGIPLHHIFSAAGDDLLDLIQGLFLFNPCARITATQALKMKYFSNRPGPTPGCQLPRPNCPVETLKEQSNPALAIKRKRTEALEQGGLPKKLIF

Molecule `COc1cc2ncnc(Oc3cccc(NC(=O)Nc4cc(C(C)(C)C(F)(F)F)on4)c3)c2cc1OC` has a Kd [1] of 24 µM, a Kd [2] of 3.8 µM and a Kd [3] of 13 µM. The Kd [4] was 34 µM, the Kd [5] was 2.2 µM and the Kd [6] was 0.22 µM. It also gave a Kd [7] of 5.6 µM, a Kd [8] of 0.52 µM and a Kd [9] of 0.043 µM. The Kd [10] was 18 µM, the Kd [11] was 0.0032 µM and the Kd [12] was 28 µM. It also gave a Kd [13] of 16 µM, a Kd [14] of 3 µM and a Kd [15] of 1 µM. It also gave a Kd [16] of 0.092 µM, a Kd [17] of 37 µM and a Kd [18] of 0.11 µM. It also gave a Kd [19] of 0.0042 µM, a Kd [20] of 10 µM and a Kd [21] of 15 µM. It also gave a Kd [22] of 2.7 µM, a Kd [23] of 27 µM and a Kd [24] of 13 µM. The Kd [25] was 6.3 µM, the Kd [26] was 16 µM and the Kd [27] was 0.0076 µM. The Kd [28] was 0.016 µM, the Kd [29] was 13 µM and the Kd [30] was 6.4 µM. For the same molecule, the Kd [31] was 0.0082 µM, the Kd [32] was 13 µM and the Kd [33] was 0.04 µM. It also gave a Kd [34] of 0.0028 µM, a Kd [35] of 0.086 µM and a Kd [36] of 8.7 µM. The Kd [37] was 9 µM, the Kd [38] was 11 µM and the Kd [39] was 8.7 µM. It also gave a Kd [40] of 0.022 µM and a Kd [41] of 16 µM.
